Results as given in the supplement of paper PMC10307832.

Key:
Assay in all cases: relative viability (nuclei count vs DMSO), 5 days (fraction); higher = more cells survive
[1] = compound: C1=CC=C(C(=C1)C2=CC=C(C=C2)C3=CSC4=C3C(=C(C(=O)N4)C#N)O)O + Cc1cc(Nc2cc(N3CCN(C)CC3)nc(Sc3ccc(NC(=O)C4CC4)cc3)n2)n[nH]1 [Tozasertib] (partner 0.1 µM)
In short: (§1)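 Lung cancer cell lines in 1536-well plates were dosed by pin tool the day after seeding, either with one drug alone or with a fixed anchor-drug dose plus five library-drug doses (not always all listed) in √10 steps. After 5 days, cells were fixed and their nuclei stained in one step (final 0.05% Triton X-100, 1% formaldehyde, 1 ug/ml Hoechst), then counted on 4× images. Relative viability is the nuclei count in treated wells divided by that in vehicle wells. Values are medians of duplicate plates.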

Ricolinostat + Dasatinib = compound: O=C(CCCCCCNC(=O)c1cnc(N(c2ccccc2)c2ccccc2)nc1)NO [Ricolinostat] + Cc1nc(Nc2ncc(C(=O)Nc3c(C)cccc3Cl)s2)cc(N2CCN(CCO)CC2)n1 [Dasatinib] (partner 0.075 µM)
In short: as §1

[2] = compound: O=C(CCCCCCNC(=O)c1cnc(N(c2ccccc2)c2ccccc2)nc1)NO [Ricolinostat] + Nc1nc2[nH]cc(CCc3ccc(C(=O)N[C@@H](CCC(=O)O)C(=O)O)cc3)c2c(=O)[nH]1 [Pemetrexed] (partner 0.2 µM)
In short: as §1

TGX 221 + Pemetrexed = compound: CC1=CN2C(=O)C=C(N=C2C(=C1)C(C)NC3=CC=CC=C3)N4CCOCC4 [TGX 221] + Nc1nc2[nH]cc(CCc3ccc(C(=O)N[C@@H](CCC(=O)O)C(=O)O)cc3)c2c(=O)[nH]1 [Pemetrexed] (partner 0.2 µM)
In short: as §1

Cell Line | relative viability ([1]; first compound 0.08 µM) | relative viability ([1]; first compound 0.253 µM) | relative viability ([1]; first compound 0.8 µM) | relative viability ([1]; first compound 2.53 µM) | relative viability ([1]; first compound 8 µM) | relative viability (Ricolinostat + Dasatinib; first compound 0.08 µM) | relative viability (Ricolinostat + Dasatinib; first compound 0.253 µM) | relative viability (Ricolinostat + Dasatinib; first compound 0.8 µM) | relative viability (Ricolinostat + Dasatinib; first compound 2.53 µM) | relative viability ([2]; first compound 0.08 µM) | relative viability ([2]; first compound 0.253 µM) | relative viability ([2]; first compound 0.8 µM) | relative viability ([2]; first compound 2.53 µM) | relative viability (TGX 221 + Pemetrexed; first compound 0.08 µM) | relative viability (TGX 221 + Pemetrexed; first compound 0.253 µM) | relative viability (TGX 221 + Pemetrexed; first compound 0.8 µM) | relative viability (TGX 221 + Pemetrexed; first compound 2.53 µM) | relative viability (TGX 221 + Pemetrexed; first compound 8 µM)
NCI-H3122 | 0.355 | 0.451 | 0.451 | 0.507 | 0.419 | 0.791 | 0.903 | 0.899 | 0.562 | 0.18 | 0.205 | 0.207 | 0.198 | 0.198 | 0.203 | 0.201 | 0.206 | 0.207
HCC-15 | 0.474 | 0.579 | 0.371 | 0.554 | 0.371 | 0.537 | 0.665 | 0.642 | 0.653 | 0.22 | 0.214 | 0.231 | 0.234 | 0.212 | 0.237 | 0.203 | 0.209 | 0.203
NCI-H2009 | 0.789 | 0.706 | 0.719 | 0.73 | 0.683 | 0.231 | 0.295 | 0.347 | 0.365 | 0.977 | 1.02 | 0.965 | 0.92 | 0.943 | 1.06 | 1.08 | 1.1 | 0.938
NCI-H23 | 0.395 | 0.32 | 0.373 | 0.449 | 0.316 | 0.667 | 0.786 | 0.698 | 0.47 | 0.562 | 0.642 | 0.684 | 0.737 | 0.599 | 0.571 | 0.678 | 0.526 | 0.578
NCI-H1623 | 0.408 | 0.53 | 0.397 | 0.457 | 0.436 | 0.484 | 0.612 | 0.528 | 0.475 |  |  |  |  |  |  |  |  | 
NCI-H1734 | 0.266 | 0.238 | 0.279 | 0.288 | 0.216 | 0.463 | 0.516 | 0.51 | 0.571 | 0.446 | 0.414 | 0.448 | 0.473 | 0.459 | 0.399 | 0.414 | 0.436 | 0.395
NCI-H2170 | 0.71 | 0.709 | 0.875 | 0.721 | 0.634 | 0.537 | 0.733 | 0.626 | 0.666 | 0.247 | 0.242 | 0.281 | 0.244 | 0.263 | 0.252 | 0.213 | 0.271 | 0.268
NCI-H2342 | 0.498 | 0.493 | 0.543 | 0.399 | 0.48 | 0.32 | 0.311 | 0.365 | 0.293 | 0.734 | 0.785 | 0.719 | 0.637 | 0.681 | 0.792 | 0.748 | 0.708 | 0.754
HCC-366 | 0.139 | 0.137 | 0.14 | 0.124 | 0.0974 | 0.487 | 0.613 | 0.576 | 0.451 | 0.172 | 0.153 | 0.202 | 0.156 | 0.158 | 0.146 | 0.184 | 0.165 | 0.16
HARA | 0.117 | 0.106 | 0.49 | 0.104 | 0.101 | 0.271 | 0.224 | 0.217 | 0.192 | 0.254 | 0.256 | 0.213 | 0.274 | 0.216 | 0.234 | 0.258 | 0.3 | 0.221
NCI-H2087 | 0.213 | 0.258 | 0.225 | 0.244 | 0.2 |  | 0.903 | 0.663 | 0.889 | 0.656 | 0.646 | 0.608 | 0.584 | 0.745 | 0.637 | 0.582 | 0.663 | 0.672
NCI-H1650 | 0.325 | 0.386 | 0.417 | 0.442 | 0.486 | 0.275 | 0.381 | 0.289 | 0.287 | 0.379 | 0.403 | 0.337 | 0.349 | 0.394 | 0.408 | 0.324 | 0.336 | 0.28
NCI-H1563 |  |  |  |  |  | 0.472 | 0.461 | 0.441 | 0.494 | 0.788 | 0.767 | 0.74 | 0.726 | 0.646 | 0.705 | 0.534 | 0.726 | 0.733
NCI-H1666 | 0.556 | 0.658 | 0.577 | 0.598 | 0.553 | 0.804 | 0.875 | 0.827 | 0.622 | 0.805 | 0.841 | 0.867 | 0.871 | 0.783 | 0.852 | 0.839 | 0.802 | 0.856
LCLC-103H | 0.481 | 0.478 | 0.592 | 0.503 | 0.457 | 0.437 | 0.55 | 0.423 | 0.464 | 0.488 | 0.463 | 0.476 | 0.516 | 0.441 | 0.481 | 0.451 | 0.455 | 0.5
HOP-62 | 0.363 | 0.363 | 0.337 | 0.335 | 0.335 | 0.533 | 0.669 | 0.655 | 0.423 | 0.304 | 0.28 | 0.337 | 0.319 | 0.315 | 0.279 | 0.289 | 0.438 | 0.376

Cell Line | relative viability ([1]; first compound 0.08 µM) | relative viability ([1]; first compound 0.253 µM) | relative viability ([1]; first compound 0.8 µM) | relative viability ([1]; first compound 2.53 µM) | relative viability ([1]; first compound 8 µM) | relative viability (Ricolinostat + Dasatinib; first compound 0.08 µM) | relative viability (Ricolinostat + Dasatinib; first compound 0.253 µM) | relative viability (Ricolinostat + Dasatinib; first compound 0.8 µM) | relative viability (Ricolinostat + Dasatinib; first compound 2.53 µM) | relative viability ([2]; first compound 0.08 µM) | relative viability ([2]; first compound 0.253 µM) | relative viability ([2]; first compound 0.8 µM) | relative viability ([2]; first compound 2.53 µM) | relative viability (TGX 221 + Pemetrexed; first compound 0.08 µM) | relative viability (TGX 221 + Pemetrexed; first compound 0.253 µM) | relative viability (TGX 221 + Pemetrexed; first compound 0.8 µM) | relative viability (TGX 221 + Pemetrexed; first compound 2.53 µM) | relative viability (TGX 221 + Pemetrexed; first compound 8 µM)
BEN | 0.477 | 0.507 | 0.747 | 0.75 | 0.541 | 0.269 | 0.322 | 0.279 | 0.213 | 0.589 | 0.88 | 0.667 | 0.518 | 0.728 | 0.715 | 0.727 | 0.645 | 0.775
UMC-11 | 0.203 | 0.227 | 0.218 | 0.321 | 0.219 | 0.427 | 0.39 | 0.399 | 0.242 | 0.751 | 0.767 | 0.728 | 0.374 | 0.677 | 0.717 | 0.788 | 0.815 | 0.823
NCI-H1755 | 0.735 | 0.571 | 0.544 | 0.629 | 0.728 | 0.368 | 0.386 | 0.472 | 0.449 | 0.405 | 0.386 | 0.343 | 0.418 | 0.461 | 0.344 | 0.38 | 0.361 | 0.39
SK-LU-1 | 0.319 | 0.265 | 0.293 | 0.379 | 0.306 | 0.16 | 0.153 | 0.18 | 0.175 | 1.06 | 0.97 | 0.949 | 0.864 | 0.923 | 0.89 | 0.907 | 0.898 | 0.838
NCI-H1793 | 0.374 | 0.331 | 0.354 | 0.337 | 0.34 |  | 0.397 | 0.348 | 0.322 | 0.603 | 0.76 | 0.815 | 0.811 | 0.667 | 0.64 | 0.754 | 0.604 | 0.68
NCI-H647 | 0.2 | 0.608 | 0.366 | 0.314 | 0.246 | 0.109 | 0.144 | 0.181 | 0.246 | 0.192 | 0.18 | 0.174 | 0.134 | 0.15 | 0.162 | 0.18 | 0.163 | 0.146
NCI-H1975 | 0.54 | 0.742 | 0.826 | 1.02 | 0.651 | 0.402 | 0.354 | 0.307 | 0.381 | 0.329 | 0.279 | 0.277 | 0.269 | 0.306 | 0.26 | 0.293 | 0.297 | 0.273
NCI-H1648 | 0.503 |  | 0.413 | 0.6 | 0.392 |  |  |  |  |  | 0.596 | 0.629 | 0.521 |  | 0.883 | 0.811 | 0.722 | 0.674
NCI-H2126 | 0.687 | 0.956 | 0.893 | 0.923 | 0.809 |  | 0.618 | 0.616 | 0.492 | 0.509 | 0.708 | 0.619 | 0.583 | 0.693 | 0.574 | 0.673 | 0.615 | 0.656
NCI-H1651 | 0.819 | 0.714 | 0.792 | 0.716 | 0.607 | 0.414 | 0.544 | 0.428 | 0.4 | 0.463 | 0.571 | 0.55 | 0.552 | 0.54 | 0.628 | 0.438 | 0.517 | 0.586
HCC-827 | 0.477 | 0.455 | 0.402 | 0.507 | 0.399 | 0.24 | 0.363 | 0.287 | 0.361 | 0.23 | 0.256 | 0.232 | 0.212 | 0.264 | 0.294 | 0.272 | 0.248 | 0.249
NCI-H2085 | 0.8 | 0.801 | 0.874 | 0.749 | 0.74 | 0.205 | 0.256 | 0.18 | 0.217 |  | 0.799 | 0.738 | 0.758 | 0.932 | 0.759 | 0.615 | 0.523 | 0.422
EPLC-272H | 0.223 | 0.194 | 0.227 | 0.22 | 0.247 | 0.308 | 0.387 | 0.336 | 0.212 | 0.448 | 0.365 | 0.334 | 0.297 | 0.392 | 0.279 | 0.353 | 0.295 | 0.303
ABC-1 | 0.214 | 0.204 | 0.205 | 0.265 | 0.186 | 0.556 | 0.632 | 0.563 | 0.489 |  |  |  |  |  |  |  |  | 
HCC-44 |  | 1.36 | 0.876 | 1.03 | 0.744 |  |  |  |  | 0.661 | 0.548 | 0.682 | 0.601 | 0.681 | 0.646 | 0.655 | 0.643 | 0.668
NCI-H727 | 0.537 | 0.604 | 0.762 | 0.702 | 0.53 | 0.352 | 0.479 | 0.47 | 0.452 |  |  |  |  |  |  |  |  | 
